Data reported in patent publication US9880151B2, “Method of determining, identifying or isolating cell-penetrating peptides” (Phylogica Limited, priority 2011, dated 2018).

Experiments:
CHO or bEnd.3 cells = assay: Live confocal microscopy screen for cell internalization, cell line not specified per result; assay type: cell-based; conditions: for cellular uptake by confocal microscopy: 10 μM (FIG. 20)
Experimental: (§1) bEnd.3 and CHO-K1 cells were seeded at 3×10^4/well and 5×10^4/well respectively, on 8-well Lab-Tek H chambered coverglass slides. Slides were incubated for 24 h prior to analysis at 37° C. at 5% CO2. Wells were washed twice with medium containing 1% FBS, and 5-10 μM FITC-labeled peptide in 1% FBS media was added to wells, and cells were imaged at 30 and 60 minutes later.
(§2) Briefly, bEnd.3 and CHO cells were seeded at subconfluent density (˜50%) on 8-well chambered coverglasses, incubated for 24 hrs, washed with culture medium containing 1% FBS and then incubated with 5-30 μM of labelled peptide for 1 hr in culture media containing 1% FBS before being imaged using confocal microscopy.

CHO-K1 cells [1] = assay: Live confocal microscopy of FITC-labelled peptides; assay type: cell-based, Chinese hamster; conditions: 60 minutes (FIG. 18)
Experimental: as §1, §2

cells = assay: Flow cytometry optimisation with FITC-labelled PYC38 (+/-TAT); assay type: cell-based; conditions: FITC-labelled peptide
Experimental: (§3) Cells were seeded in 6-well plates and then grown for 24 hours before peptide was added for 1 hour at 37° C. Cells were harvested via trypsinization, and then assayed for peptide internalization/binding by flow cytometry.
(§4) The flow cytometry procedure was initially optimized using fluorophore-labelled TAT-PYC38. Subsequently, FITC-labelled peptides from the Phase 1-Pilot and Phase 2-CPP screens were assessed at 10 μM concentrations for internalization using CHO and bEnd3 cells. Peptides that scored as positive in the cell binding/internalization assay were subjected to further analysis using different temperatures and cell lines to determine cell selectivity. The cell-binding/uptake activity of pure (>85% purity) and Pepset (purity ranges from 40-80%) peptides was also compared to determine whether peptide purity affected CPP activity.

[2] = system: bEnd.3 mouse brain endothelial cells; assay: Fluorescent microscopy assessment of CPP internalisation; assay type: cell-based; conditions: 10 μM, CM and SF (FIGS. 25-28)
Experimental: (§5) CHO-K1 cells are seeded at 70,000 cells/slide chamber, and bEnd.3 cells are seeded at 40,000 cells/slide chamber. Cells are cultured for 24 h at 37° C. in 5% CO2, washed with PBS 1×, and FITC-labeled peptide (10 uM) is added to cells in 10% FBS (CM).
(§6) Alternatively, cells in serum-free (SF) medium are incubated for 1 h at 37° C., washed twice in PBS, fixed in 10% formaladehyde/PBS (15 min at RT), washed as before, incubated in, 300 nM DAPI/PBS solution for […] at RT, washed as before, and mounted onto slides.

CHO-K1 cells [3] = assay: Flow cytometry analysis of FITC-labelled peptide cell binding/uptake; assay type: cell-based, Chinese hamster; conditions: for cellular uptake into CHO-K1: 37° C. and 4° C. (FIG. 34); for cellular uptake into CHO-K1 cells measured using FITC: FIG. 36
Experimental: (§7) CHO-K1 and bEnd.3 cells were seeded in 6-well plates at 5×10^5 cells/well in culture medium and incubated for 24 h at 37° C. in 5% CO2. Culture media was aspirated, and cells washed once with PBS to remove debris. Then, 1 mL of media containing 10 or 20 μM of FITC-peptide was added to wells, and plates were incubated for 1 h at 37° C. in 5% CO2. The cells were washed twice with 1×PBS, and 1 mL of 0.25% trypsin/EDTA added per well, and incubated at 37° C. for 4 min. Reactions were stopped by dilution of trypsin with 2 mL complete media. Cells were dislodged by gentle titration and transferred to flow cytometry tubes, washed twice with FACS buffer (0.5% BSA/0.01% NaN3/PBS), collected by centrifugation for 4 min at 1500 rpm, and resuspended in 0.3 mL fixing buffer solution (1% formaldehyde in PBS). Cells were filtered through gauze before reading on BD LSRII flow cytometer.
as §3, §4

CHO-K1 cells [4] = assay: Fluorescent microscopy assessment of CPP internalisation; assay type: cell-based, Chinese hamster; conditions: 10 μM, CM and SF (FIGS. 30-32)
Experimental: as §5, §6

bEnd.3 cells = assay: Flow cytometry analysis of FITC-labelled peptide cell binding/uptake; assay type: cell-based, mouse; conditions: FIG. 36
Experimental: as §7, §3, §4

endosome = conditions: Sugita et al. 2008; cited from earlier work
[5] = system: primary cortical neuronal cultures; assay: Glutamate excitotoxicity assay, neuroprotection by CPP-PYC36 fusions; assay type: cell-based; conditions: PYC36 alone, data not shown
Experimental: Peptides ID 4052 (SEQ ID NO: 16; Table 10), Peptides ID 4052a (SEQ ID NO: 26; Table 10), and TAT peptide ([…]; SEQ ID NO: 28) were each produced as fusions to the neuroprotective peptide PYC36 ([…]; SEQ ID NO: 29) described in WO 2008/034161. The fusion peptides were assayed for their ability to confer survival on primary cortical neuronal cultures by glutamate excitotoxicity assay as described in Example of WO 2008/034161.

Substance	internalisation into bEnd.3 cells, fluorescent microscopy [2]	internalisation into CHO-K1 cells, fluorescent microscopy (CHO-K1 cells [4])	cellular uptake into CHO-K1 cells measured using FITC (CHO-K1 cells [3])	cellular uptake into bEnd.3 cells measured using FITC (bEnd.3 cells)	other results
rhaplarGswrGqpqqGpqrrGqlGG [PYC38, reference compound]	–	–	–	–	uptake by confocal microscopy, control peptides (CHO or bEnd.3 cells; 5-30 μM labelled peptide, 1 hr): no uptake; uptake into CHO-K1 cells by confocal microscopy (CHO-K1 cells [1]; 5 μM peptide): no detectable evidence of uptake; level of cell binding/internalization, PYC38-TAT versus PYC38 (cells): significantly lower
0045 (PFLKRVPACLRLRR) [compound 0045]	evidence for internalisation of the peptide into bEnd.3 cells	evidence for internalisation of the peptide into CHO-K1 cells	–	–	cellular uptake into CHO-K1 (CHO-K1 cells [3]): high uptake
4052 (WGCCGRSSRRRRTR) [compound 4052]	–	–	high uptake	high uptake	–
WTISSRRRKVNRAC [Peptide ID 4063, arginine-rich TAT-like CPP from non-coding region]	–	–	–	–	uptake into CHO-K1 cells by confocal microscopy (CHO-K1 cells [1]; 10 μM peptide): evidence of the uptake; uptake into CHO-K1 cells by confocal microscopy (CHO-K1 cells [1]; 30 μM peptide): uptake
transferrin: named in cited endosome escape study	–	–	–	–	efficiency of endosome escape (endosome): low
RFRCGRRKWQIGS [Peptide ID 9072, arginine-rich TAT-like CPP from non-coding region]	–	–	–	–	uptake into CHO-K1 cells, flow cytometry curve (CHO-K1 cells [3]; 10 μM, 37° C., vs PYC38-TAT positive control (FIG. 15)): largely overlaps with that for the positive control; cellular uptake by confocal microscopy (CHO or bEnd.3 cells): evidence for cellular uptake
9170 (RCGRASRCRVRWMRRRRI) [compound 9170]	evidence for internalisation of the peptide into bEnd.3 cells	evidence for internalisation of the peptide into CHO-K1 cells	high uptake	high uptake	cellular uptake into CHO-K1 (CHO-K1 cells [3]): high uptake; cellular uptake by confocal microscopy (CHO or bEnd.3 cells): evidence for cellular uptake
5008 (PYSRPHVQLWYPNRESCRSLIRSLGP) [compound 5008]	evidence for internalisation of the peptide into bEnd.3 cells	evidence for internalisation of the peptide into CHO-K1 cells	high uptake	high uptake	–
GLQGRRRQGYQSIKP (GLQRRRQGYQSIKP) [PYC36, neuroprotective peptide described in WO 2008/034161]	–	–	–	–	neuroprotective activity following glutamate induced neural damage [5]: negligible neuroprotective activity
